Laboratory results from patent US8563714B2, “Bridged spiro [2.4] heptane derivatives as ALX receptor and/or FPRL2 agonists” (Actelion Pharmaceuticals Ltd., priority 2009, dated 2013).

What was measured:
[1] = molecular target: T1, human ALX receptor (Homo sapiens, UniProt P25090); assay: Intracellular calcium measurements (FLIPR), agonistic activity in HEK293-hALXR-Gα16 cells; format: cell-based; details: Fluo-4 calcium FLIPR, normalized to WKYMVm 10 nM
T1 construct: expressed in transfected cells; host or cells: HEK293 (HEK293-hALXR-Gα16)
T1 sequence (P25090 1-351): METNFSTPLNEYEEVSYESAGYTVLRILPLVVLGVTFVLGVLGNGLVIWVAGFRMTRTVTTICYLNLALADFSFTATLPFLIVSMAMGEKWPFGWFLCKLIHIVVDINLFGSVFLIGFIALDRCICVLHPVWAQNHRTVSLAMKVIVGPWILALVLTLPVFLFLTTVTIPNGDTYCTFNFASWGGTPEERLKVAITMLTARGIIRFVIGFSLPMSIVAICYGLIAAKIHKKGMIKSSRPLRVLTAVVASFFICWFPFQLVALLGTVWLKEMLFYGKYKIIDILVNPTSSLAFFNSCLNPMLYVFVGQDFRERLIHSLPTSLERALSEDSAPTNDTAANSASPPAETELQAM
Summary of the method: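 HEK293 cells expressing hALXR and Gα16 were loaded with 1 μM Fluo-4 AM and 20 mM HEPES for 60 min at 37°C, then exposed to serially diluted compound. FLIPR fluorescence was read at ex 488/em 540 nm. Baseline-subtracted peak responses were normalized to 10 nM WKYMVm.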

[2] = molecular target: T2, human FPRL2 (Homo sapiens, UniProt P25089); assay: Intracellular calcium measurements (FLIPR), agonistic activity in HEK293-hFPRL2-Gα16 cells; format: cell-based; details: Fluo-4 calcium FLIPR, normalized to GLY14-Humanin 100 nM
T2 construct: expressed in transfected cells; host or cells: HEK293 (HEK293-hFPRL2-Gα16)
T2 sequence (P25089 1-353): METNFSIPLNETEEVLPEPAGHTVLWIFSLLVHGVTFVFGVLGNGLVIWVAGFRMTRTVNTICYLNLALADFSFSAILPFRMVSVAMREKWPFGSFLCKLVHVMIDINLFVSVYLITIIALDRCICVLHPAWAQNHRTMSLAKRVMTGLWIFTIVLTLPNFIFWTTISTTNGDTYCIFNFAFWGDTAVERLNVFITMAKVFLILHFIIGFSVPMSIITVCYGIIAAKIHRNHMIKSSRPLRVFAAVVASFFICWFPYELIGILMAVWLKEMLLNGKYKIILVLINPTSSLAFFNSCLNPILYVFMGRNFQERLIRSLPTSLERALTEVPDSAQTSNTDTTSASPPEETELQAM
Summary of the method: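 Peak values after baseline subtraction are expressed relative to 100 nM Gly14-Humanin; compounds diluted in assay buffer from 10 mM DMSO stocks.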

SMILES	EC50 [1] [µM]	EC50 [2] [µM]
O=C(NCCCN1CCOCC1)[C@H]1[C@H](C(=O)Nc2ccc(Br)cc2)[C@@H]2C=C[C@H]1C21CC1 (racemic) [Example 87, (5R*)—N^5-(4-Bromophenyl)-(6R*)—N^6-(3-morpholino-propyl)-(4S*,7R*)-[4,7-ethenylene-spiro[2.4]heptane]-5,6-dicarboxamide]	0.156	2.21
Cc1[nH]ncc1CCCNC(=O)[C@H]1[C@H](C(=O)Nc2ccc(Br)cc2)[C@@H]2C=C[C@H]1C21CC1 (racemic) [Example 88, (5R*)—N^5-(4-Bromophenyl)-(6R*)—N^6-(3-(5-methyl-1H-pyrazol-4-yl)-propyl)-(4S*,7R*)-[4,7-ethenylene-spiro[2.4]heptane]-5,6-dicarboxamide]	0.168	9.42
CC(C)(C)OC(=O)CCCNC(=O)[C@H]1[C@H](C(=O)Nc2ccc(Br)cc2)[C@@H]2C=C[C@H]1C21CC1 (racemic) [Example 89, (5R*)—N^5-(4-Bromophenyl)-(6R*)—N^6-(3-tert-butoxycarbonyl-propyl)-(4S*,7R*)-[4,7-ethenylene-spiro[2.4]heptane]-5,6-dicarboxamide]	0.191	2.47
CC(C)(C)OC(=O)NCc1cccc(CNC(=O)[C@H]2[C@H](C(=O)Nc3ccc(Br)cc3)[C@@H]3C=C[C@H]2C32CC2)c1 (racemic) [Example 90, (5R*)—N^5-(4-Bromophenyl)-(6R*)—N^6-{[(3-N-tert-butoxycarbonyl-aminomethyl)-phenyl]-methyl}-(4S*,7R*)-[4,7-ethenylene-spiro[2.4]heptane]-5,6-dicarboxamide]	0.194	2.26
CCCN(CC1CC1)C(=O)[C@H]1[C@H](C(=O)Nc2ccc(Br)cc2)[C@@H]2C=C[C@H]1C21CC1 (racemic) [Example 91, (5R*)—N^5-(4-Bromophenyl)-(6R*)—N^6-propyl-N^6-(cyclopropylmethyl)-(4S*,7R*)-[4,7-ethenylene-spiro[2.4]heptane]-5,6-dicarboxamide]	0.2	2.98
CC(C)(C)OC(=O)N1CCC(CNC(=O)[C@H]2[C@H](C(=O)Nc3ccc(Br)cc3)[C@@H]3C=C[C@H]2C32CC2)CC1 (racemic) [Example 92, (5R*)—N^5-(4-Bromophenyl)-(6R*)—N^6—(N-tert-butoxycarbonyl-piperidin-4-yl-methyl)-(4S*,7R*)-[4,7-ethenylene-spiro[2.4]heptane]-5,6-dicarboxamide]	0.204	2.67
O=C(NC1CCCCC1)[C@H]1[C@H](C(=O)Nc2ccc(Br)cc2)[C@@H]2C=C[C@H]1C21CC1 (racemic) [Example 93, (5R*)—N^5-(4-Bromophenyl)-(6R*)—N^6-(cyclohexyl)-(4S*,7R*)-[4,7-ethenylene-spiro[2.4]heptane]-5,6-dicarboxamide]	0.216	> 25
CC(C)(C)OC(=O)N1CCC(NC(=O)[C@H]2[C@H](C(=O)Nc3ccc(Br)cc3)[C@@H]3C=C[C@H]2C32CC2)CC1 (racemic) [Example 94, (5R*)—N^5-(4-Bromophenyl)-(6R*)—N^6—(N-tert-butoxycarbonyl-piperidin-4-yl)-(4S*,7R*)-[4,7-ethenylene-spiro[2.4]heptane]-5,6-dicarboxamide]	0.218	1.04
CC(C)(C)OC(=O)NCc1ccc(CNC(=O)[C@H]2[C@H](C(=O)Nc3ccc(Br)cc3)[C@@H]3C=C[C@H]2C32CC2)cc1 (racemic) [Example 97, (5R*)—N^5-(4-Bromophenyl)-(6R*)—N^6-[(4-N-tert-butoxycarbonyl-aminomethyl-phenyl)-methyl]-(4S*,7R*)-[4,7-ethenylene-spiro[2.4]heptane]-5,6-dicarboxamide]	0.391	1.43
